Earlier results, collected in PubChem BioAssay AID1259409 (Chemical Carcinogenesis Research Information System (CCRIS), 2018).
Several values for one entry are separate records, joined by “and”; a condition that tells them apart may be missing. Equal entries are not always repeated.

Tested on: rodent chemically induced tumor inhibition, incidence and multiplicity
Test: CCRIS tumor inhibitor studies

COc1cc(/C=C/C(=O)O)ccc1O
tumour outcome (control, treated, inhibition, significance) (Carcinogen: 4-NITROQUINOLINE-1-OXIDE [56-57-5], Dose [Inhibitor]: 500 PPM IN DIET FOR 7 WK BEGINNING 1 WK PRIOR TO FIRST CARCINOGEN DOSE (STUDY DURATION: 32 WK), Route [Inhibitor]: ORAL, Species: RAT, Strain/Sex: F344/MALE, Target Tissue: Type of Lesion: TONGUE: PAPILLOMA OR CARCINOMA, Dose [Carcinogen]: 20 PPM IN DRINKING WATER FOR 5 WK (STUDY DURATION: 32 WK), Promoter: NONE): 9/15 (60%), 3/14 (21%), 65%, p<0.05 | tumour outcome (control, treated, inhibition, significance) (Carcinogen: 4-NITROQUINOLINE-1-OXIDE, 56-57-5, Dose [Inhibitor]: 0, 500 PPM IN DIET FOR 7 WK BEGINNING 1 WK PRIOR TO START OF CARCINOGEN TREATMENT (STUDY DURATION: 32 WK), Route [Inhibitor]: ORAL, Species: RAT, Strain/Sex: F344/MALE, Target Tissue: Type of Lesion: TONGUE: PAPILLOMA, Dose [Carcinogen]: 20 PPM IN DRINKING WATER FOR 5 WK, Promoter: NONE USED): 1/15 (7%), 2/14 (14%), -100%, not significant | tumour outcome (control, treated, inhibition, significance) (Carcinogen: 7,12-DIMETHYLBENZ[A]ANTHRACENE, 57-97-6, Dose [Inhibitor]: 0, 5 MG IN 200 µL ACETONE 2/WK BEGINNING 10 D POST CARCINOGEN DOSE APPLIED 30-40 MIN PRIOR TO EACH PROMOTER DOSE (STUDY, Route [Inhibitor]: DERMAL, Species: MOUSE, Strain/Sex: ICR/FEMALE, Target Tissue: Type of Lesion: SKIN: PAPILLOMA, Dose [Carcinogen]: 200 NMOL IN 200 µL ACETONE ONCE, Promoter: 12-O-TETRADECANOYLPHORBOL-13-ACETATE, 16561-29-8): 100%, 94%, 6%, not significant and 100%, 65%, 35%, not calculated | tumour outcome (control, treated, inhibition, significance) (Carcinogen: 7,12-DIMETHYLBENZ[A]ANTHRACENE, 57-97-6, Dose [Inhibitor]: 10 UMOL IN 200 µL ACETONE/DMSO (90:10) 2/WK FOR 19 WK BEGINNING 1 WK POST CARCINOGEN DOSE (STUDY DURATION: 20 WK), Route [Inhibitor]: DERMAL, Species: MOUSE, Strain/Sex: CD-1/FEMALE, Target Tissue: Type of Lesion: SKIN: PAPILLOMA, Dose [Carcinogen]: 200 NMOL IN 200 µL ACETONE ONCE, Promoter: 12-O-TETRADECANOYLPHORBOL-13-ACETATE, 16561-29-8): 68%, 64%, 6%, not calculated | tumour outcome (control, treated, inhibition, significance) (Carcinogen: 7,12-DIMETHYLBENZ[A]ANTHRACENE, 57-97-6, Dose [Inhibitor]: 50 UMOL IN 200 µL ACETONE/DMSO (90:10) 2/WK FOR 19 WK BEGINNING 1 WK POST CARCINOGEN DOSE (STUDY DURATION: 20 WK), Route [Inhibitor]: DERMAL, Species: MOUSE, Strain/Sex: CD-1/FEMALE, Target Tissue: Type of Lesion: SKIN: PAPILLOMA, Dose [Carcinogen]: 200 NMOL IN 200 µL ACETONE ONCE, Promoter: 12-O-TETRADECANOYLPHORBOL-13-ACETATE, 16561-29-8): 68%, 13%, 81%, not calculated | tumour outcome (control, treated, inhibition, significance) (Carcinogen: AZOXYMETHANE [25843-45-2], Dose [Inhibitor]: 0, 250 PPM IN DIET FOR 12 WK (STUDY DURATION: 35 WK), Route [Inhibitor]: ORAL, Species: RAT, Strain/Sex: F344/MALE, Target Tissue: Type of Lesion: INTESTINE: TUMOR, Dose [Carcinogen]: 15 MG/KG 3X/WK FOR 12 WK (STUDY DURATION: 35 WK), Promoter: NONE): 64%, 32%, 50%, p<0.05 | tumour outcome (control, treated, inhibition, significance) (Carcinogen: AZOXYMETHANE [25843-45-2], Dose [Inhibitor]: 0, 250 PPM IN DIET FOR 12 WK (STUDY DURATION: 35 WK), Route [Inhibitor]: ORAL, Species: RAT, Strain/Sex: F344/MALE, Target Tissue: Type of Lesion: SMALL INTESTINE: TUMOR, Dose [Carcinogen]: 15 MG/KG 3X/WK FOR 12 WK (STUDY DURATION: 35 WK), Promoter: NONE): 18%, 5%, 72%, not significant | tumour outcome (control, treated, inhibition, significance) (Carcinogen: AZOXYMETHANE [25843-45-2], Dose [Inhibitor]: 0, 250 PPM IN DIET FOR 23 WK BEGINNING POST LAST CARCINOGEN DOSE (STUDY DURATION: 35 WK), Route [Inhibitor]: ORAL, Species: RAT, Strain/Sex: F344/MALE, Target Tissue: Type of Lesion: INTESTINE: TUMOR, Dose [Carcinogen]: 15 MG/KG 3X/WK FOR 12 WK (STUDY DURATION: 35 WK), Promoter: NONE): 64%, 41%, 36%, p<0.05 | tumour outcome (control, treated, inhibition, significance) (Carcinogen: AZOXYMETHANE [25843-45-2], Dose [Inhibitor]: 0, 250 PPM IN DIET FOR 23 WK BEGINNING POST LAST CARCINOGEN DOSE (STUDY DURATION: 35 WK), Route [Inhibitor]: ORAL, Species: RAT, Strain/Sex: F344/MALE, Target Tissue: Type of Lesion: LARGE INTESTINE: TUMOR, Dose [Carcinogen]: 15 MG/KG 3X/WK FOR 12 WK (STUDY DURATION: 35 WK), Promoter: NONE): 11%, 36%, -227%, not significant | tumour outcome (control, treated, inhibition, significance) (Carcinogen: AZOXYMETHANE [25843-45-2], Dose [Inhibitor]: 0, 250 PPM IN DIET FOR 23 WK BEGINNING POST LAST CARCINOGEN DOSE (STUDY DURATION: 35 WK), Route [Inhibitor]: ORAL, Species: RAT, Strain/Sex: F344/MALE, Target Tissue: Type of Lesion: SMALL INTESTINE: TUMOR, Dose [Carcinogen]: 15 MG/KG 3X/WK FOR 12 WK (STUDY DURATION: 35 WK), Promoter: NONE): 18%, 18%, 0%, not significant | tumour outcome (control, treated, inhibition, significance) (Carcinogen: AZOXYMETHANE [25843-45-2], Dose [Inhibitor]: 0, 500 PPM IN DIET FOR 12 WK (STUDY DURATION: 35 WK), Route [Inhibitor]: ORAL, Species: RAT, Strain/Sex: F344/MALE, Target Tissue: Type of Lesion: INTESTINE: TUMOR, Dose [Carcinogen]: 15 MG/KG 3X/WK FOR 12 WK (STUDY DURATION: 35 WK), Promoter: NONE): 64%, 32%, 50%, p<0.05 | tumour outcome (control, treated, inhibition, significance) (Carcinogen: AZOXYMETHANE [25843-45-2], Dose [Inhibitor]: 0, 500 PPM IN DIET FOR 12 WK (STUDY DURATION: 35 WK), Route [Inhibitor]: ORAL, Species: RAT, Strain/Sex: F344/MALE, Target Tissue: Type of Lesion: LARGE INTESTINE: TUMOR, Dose [Carcinogen]: 15 MG/KG 3X/WK FOR 12 WK (STUDY DURATION: 35 WK), Promoter: NONE): 11%, 27%, -146%, not significant | tumour outcome (control, treated, inhibition, significance) (Carcinogen: AZOXYMETHANE [25843-45-2], Dose [Inhibitor]: 0, 500 PPM IN DIET FOR 12 WK (STUDY DURATION: 35 WK), Route [Inhibitor]: ORAL, Species: RAT, Strain/Sex: F344/MALE, Target Tissue: Type of Lesion: SMALL INTESTINE: TUMOR, Dose [Carcinogen]: 15 MG/KG 3X/WK FOR 12 WK (STUDY DURATION: 35 WK), Promoter: NONE): 18%, 5%, 72%, not significant | tumour outcome (control, treated, inhibition, significance) (Carcinogen: AZOXYMETHANE [25843-45-2], Dose [Inhibitor]: 0, 500 PPM IN DIET FOR 23 WK BEGINNING POST LAST CARCINOGEN DOSE (STUDY DURATION: 35 WK), Route [Inhibitor]: ORAL, Species: RAT, Strain/Sex: F344/MALE, Target Tissue: Type of Lesion: INTESTINE: TUMOR, Dose [Carcinogen]: 15 MG/KG 3X/WK FOR 12 WK (STUDY DURATION: 35 WK), Promoter: NONE): 64%, 41%, 36%, not significant
